Laboratory results as given in the NIST ThermoML archive (doi:10.1021/acs.jced.6b00269).
± gives the expanded uncertainty stated by the source.

Conditions: for viscosity / mass density: 101.33 kPa, Liquid; for viscosity: Cone and plate viscometry; for mass density: Vibrating tube method; for Glass transition temperature: DSC; for Normal melting temperature: Crystal, DTA

Row | SMILES | viscosity (278.15 K) [mPa·s] | viscosity (283.15 K) [mPa·s] | mass density (283.15 K) [kg/m3] | viscosity (288.15 K) [mPa·s] | mass density (288.15 K) [kg/m3] | viscosity (293.15 K) [mPa·s] | mass density (293.15 K) [kg/m3] | mass density (295.15 K) [kg/m3] | viscosity (298.15 K) [mPa·s] | mass density (298.15 K) [kg/m3] | viscosity (303.15 K) [mPa·s] | mass density (303.15 K) [kg/m3] | viscosity (308.15 K) [mPa·s] | mass density (308.15 K) [kg/m3] | viscosity (313.15 K) [mPa·s] | mass density (313.15 K) [kg/m3] | mass density (318.15 K) [kg/m3] | mass density (323.15 K) [kg/m3] | mass density (328.15 K) [kg/m3] | mass density (333.15 K) [kg/m3] | other results
1 | CCCCCCCCSC(N(C)C)=[N+](C)C.O=S(=O)([N-]S(=O)(=O)C(F)(F)F)C(F)(F)F | 356 ± 27 | 254 ± 19 | 1309.6 ± 9.4 | 186 ± 13 | 1305.2 ± 9.3 | 140 ± 10 | 1301 ± 9.2 | 1299.3 ± 9.2 | 108 ± 7 | 1296.7 ± 9.2 | 85 ± 6 | 1292.4 ± 9.1 | 69 ± 5 | 1288.2 ± 9 | 56 ± 4 | 1284 ± 9 | 1279.7 ± 8.9 | 1275.5 ± 8.9 | 1271.3 ± 8.8 | 1267.1 ± 8.8 | mass density (338.15 K): 1262.9 ± 8.7 kg/m3; mass density (343.15 K): 1258.7 ± 8.6 kg/m3; mass density (348.15 K): 1254.6 ± 8.6 kg/m3; mass density (353.15 K): 1250.4 ± 8.5 kg/m3; Glass transition temperature: -82 ± 2 °C
2 | CCCCCCCC[P+](CC)(CC)CC.O=[N+]([O-])c1c[n-]cn1 [triethyloctylphosphonium 4-nitroimidazolide] | 1220 ± 110 | 804 ± 68 | 1037.8 ± 5.8 | 547 ± 44 | 1034.8 ± 5.8 | 382 ± 29 | 1031.8 ± 5.8 | 1030.6 ± 5.7 | 276 ± 20 | 1028.8 ± 5.7 | 204 ± 14 | 1025.8 ± 5.7 | 155 ± 11 | 1022.9 ± 5.7 | 120 ± 8 | 1020.1 ± 5.6 | 1017.2 ± 5.6 | 1014.3 ± 5.6 | 1011.4 ± 5.5 | 1008.5 ± 5.5 | viscosity (318.15 K): 95 ± 6 mPa·s; viscosity (323.15 K): 76 ± 5 mPa·s; viscosity (328.15 K): 62 ± 4 mPa·s; viscosity (333.15 K): 52 ± 3 mPa·s; mass density (338.15 K): 1005.7 ± 5.5 kg/m3; mass density (343.15 K): 1002.8 ± 5.4 kg/m3; mass density (348.15 K): 1000 ± 5.4 kg/m3; mass density (353.15 K): 997.1 ± 5.4 kg/m3; Normal melting temperature: -28 ± 2 °C
3 | CC[P+](CC)(CC)C1CCCC1.O=[N+]([O-])c1cn[n-]c1 [cyclopentyltriethylphosphonium 4-nitropyrazolide] |  |  |  |  |  |  |  |  |  |  |  |  |  |  |  |  |  |  |  |  | Normal melting temperature: 51 ± 2 °C
4 | CCOCc1n(CC)cc[n+]1C.O=S(=O)([N-]S(=O)(=O)C(F)(F)F)C(F)(F)F | 207 ± 15 | 149 ± 10 |  | 111 ± 8 |  | 85 ± 6 |  |  | 66 ± 4 |  | 53 ± 4 |  |  |  |  |  |  |  |  |  | Glass transition temperature: -78 ± 2 °C
5 | CCCCCCCCC[P+](CC)(CC)CC.O=[N+]([O-])c1cn[n-]c1 [triethylnonylphosphonium 4-nitropyrazolide] | 1370 ± 120 | 888 ± 76 | 1031 ± 5.7 | 593 ± 48 | 1027.9 ± 5.7 | 409 ± 32 | 1024.9 ± 5.7 | 1023.6 ± 5.7 | 291 ± 22 | 1021.8 ± 5.6 | 213 ± 15 | 1018.8 ± 5.6 | 160 ± 11 | 1015.8 ± 5.6 | 123 ± 8 | 1012.9 ± 5.5 | 1009.9 ± 5.5 | 1007 ± 5.5 | 1004 ± 5.4 | 1001.1 ± 5.4 | viscosity (318.15 K): 96 ± 6 mPa·s; viscosity (323.15 K): 77 ± 5 mPa·s; viscosity (328.15 K): 63 ± 4 mPa·s; viscosity (333.15 K): 52 ± 3 mPa·s; mass density (338.15 K): 998.2 ± 5.4 kg/m3; mass density (343.15 K): 995.3 ± 5.3 kg/m3; mass density (348.15 K): 992.4 ± 5.3 kg/m3; mass density (353.15 K): 989.5 ± 5.3 kg/m3; Normal melting temperature: 16 ± 2 °C; Glass transition temperature: -72 ± 2 °C
6 | CCCCCCCCCC[P+](CC)(CC)CC.O=[N+]([O-])c1cn[n-]c1 [decyltriethylphosphonium 4-nitropyrazolide] | 1620 ± 150 | 1030 ± 90 | 1020 ± 5.6 | 678 ± 56 | 1017 ± 5.6 | 461 ± 36 | 1013.9 ± 5.6 | 1012.7 ± 5.5 | 325 ± 24 | 1010.9 ± 5.5 | 236 ± 17 | 1007.9 ± 5.5 | 175 ± 12 | 1004.9 ± 5.5 | 133 ± 9 | 1002 ± 5.4 | 999.1 ± 5.4 | 996.2 ± 5.4 | 993.3 ± 5.3 | 990.4 ± 5.3 | viscosity (318.15 K): 104 ± 7 mPa·s; viscosity (323.15 K): 82 ± 5 mPa·s; viscosity (328.15 K): 66 ± 4 mPa·s; viscosity (333.15 K): 54 ± 4 mPa·s; mass density (338.15 K): 987.5 ± 5.3 kg/m3; mass density (343.15 K): 984.6 ± 5.2 kg/m3; mass density (348.15 K): 981.7 ± 5.2 kg/m3; mass density (353.15 K): 978.8 ± 5.2 kg/m3; Normal melting temperature: 11 ± 2 °C; Glass transition temperature: -71 ± 2 °C
7 | CCCCCCCCCCCCCC[P+](CCCCCC)(CCCCCC)CCCCCC.N#Cc1nc[n-]c1C#N [trihexyl(tetradecyl)phosphonium 4,5-dicyanoimidazolide] | 2490 ± 240 | 1630 ± 150 | 928.9 ± 4.7 | 1090 ± 100 | 925.7 ± 4.7 | 754 ± 63 | 922.6 ± 4.7 | 921.5 ± 4.7 | 535 ± 43 | 919.7 ± 4.7 | 391 ± 30 | 916.8 ± 4.6 | 291 ± 21 | 913.9 ± 4.6 | 220 ± 16 | 911 ± 4.6 | 908.1 ± 4.6 | 905.2 ± 4.5 | 902.4 ± 4.5 | 899.6 ± 4.5 | viscosity (318.15 K): 171 ± 12 mPa·s; viscosity (323.15 K): 135 ± 9 mPa·s; viscosity (328.15 K): 108 ± 7 mPa·s; viscosity (333.15 K): 88 ± 6 mPa·s; viscosity (338.15 K): 73 ± 5 mPa·s; mass density (338.15 K): 896.7 ± 4.5 kg/m3; mass density (343.15 K): 893.9 ± 4.5 kg/m3; mass density (348.15 K): 891 ± 4.4 kg/m3; mass density (353.15 K): 888.2 ± 4.4 kg/m3; Glass transition temperature: -78 ± 2 °C
